Data on 6 compounds can be found in ChEMBL document CHEMBL5625212, “De novo designed self-assembling helicomimetic lipooligoureas with antibacterial activity” (Eur J Med Chem, 2023).

Data set [1] concerns Staphylococcus epidermidis. Kind of data set: Antibacterial activity against Staphylococcus epidermidis ATCC 12228 assessed as reduction in bacterial growth measured after 24 hrs by spectrophotometer based analysis. Type of data set: functional.
Data set [2] has as its system Staphylococcus aureus. Nature of the data set: Antibacterial activity against Staphylococcus aureus ATCC 29213 assessed as reduction in bacterial growth measured after 24 hrs by spectrophotometer based analysis. The class given is functional.
Data set [3] relates to Yersinia enterocolitica. Nature of the data set: Antibacterial activity against Yersinia enterocolitica PCM 2081 assessed as reduction in bacterial growth measured after 24 hrs by spectrophotometer based analysis. The class given is functional.
The subject of data set [4] is Staphylococcus aureus. Nature of the data set: Antibacterial activity against methicillin resistant Staphylococcus aureus 4811/13 assessed as reduction in bacterial growth measured after 24 hrs by spectrophotometer based analysis. Type of data set: functional.
Data set [5] in a line: Proteolytic stability of the compound in human serum assessed as drug degradation measured after 96 hrs by RP-HPLC analysis. The class given is ADME, cell-free. Conditions: read-out: Drug degradation.
In data set [6] the test system is Klebsiella pneumoniae. Kind of data set: Antibacterial activity against Klebsiella pneumoniae PCM 1 assessed as reduction in bacterial growth measured after 24 hrs by spectrophotometer based analysis. The class given is functional.
Data set [7] relates to Staphylococcus aureus. Nature of the data set: Antibacterial activity against methicillin resistant Staphylococcus aureus 5288/13 assessed as reduction in bacterial growth measured after 24 hrs by spectrophotometer based analysis. The class given is functional.
Data set [8] in a line: Proteolytic stability of the compound in human serum assessed as drug degradation measured after 24 hrs by RP-HPLC analysis. Particulars: read-out: Drug degradation. The class given is ADME, cell-free.
Data set [9] deals with Staphylococcus aureus. Nature of the data set: Antibacterial activity against methicillin resistant Staphylococcus aureus 401/5 assessed as reduction in bacterial growth measured after 24 hrs by spectrophotometer based analysis. The class given is functional.
Data set [10] deals with Salmonella typhimurium. Kind of data set: Antibacterial activity against Salmonella enterica subsp. enterica serovar Typhimurium TT622 assessed as reduction in bacterial growth measured after 24 hrs by spectrophotometer based analysis. Type of data set: functional.
Data set [11] concerns Pseudomonas aeruginosa. Kind of data set: Antibacterial activity against Pseudomonas aeruginosa PA01 PCM 499 assessed as reduction in bacterial growth measured after 24 hrs by spectrophotometer based analysis. The class given is functional.
In data set [12] the test system is Escherichia coli. Kind of data set: Antibacterial activity against Escherichia coli ST2-8624 O157 H7 assessed as reduction in bacterial growth measured after 24 hrs by spectrophotometer based analysis. The class given is functional.
Data set [13] in a line: Aggregation property of compound in PBS assessed as critical aggregation concentration. The class given is physicochemical. Particulars: buffer.
The subject of data set [14] is Enterococcus faecalis. Nature of the data set: Antibacterial activity against Enterococcus faecalis ATCC 14506 assessed as reduction in bacterial growth measured after 24 hrs by spectrophotometer based analysis. The class given is functional.
The nature of data set [15]: Proteolytic stability of the compound in human serum assessed as drug degradation measured within 4 hrs by RP-HPLC analysis. The class given is ADME, cell-free.

Values after ≈ are worked out from the molar mass of the structure shown.

The term MIC denotes the lowest concentration found to suppress growth. As to `CCCCCCCCCC(=O)N[C@H](CNC(=O)N[C@@H](CCN)CNC(=O)N[C@H](CN[C@H](CNC(=O)N[C@@H](CCN)CNC(N)=O)CC(C)C)CC(C)C)Cc1ccccc1`, the minimum inhibitory concentration (MIC) in data set [1] worked out at 5 µg/mL (≈ 5.9 µM); in data set [2] it was 5 µg/mL (≈ 5.9 µM); in data set [3] it was 10 µg/mL (≈ 11.8 µM); in [4], 5 µg/mL (≈ 5.9 µM); in data set [6] it was 20 µg/mL (≈ 23.6 µM); in data set [7], 5 µg/mL (≈ 5.9 µM). Besides, the MIC in data set [9] is 5 µg/mL (≈ 5.9 µM); in data set [10] it was 20 µg/mL (≈ 23.6 µM); in data set [11], 10 µg/mL (≈ 11.8 µM); in data set [12], 10 µg/mL (≈ 11.8 µM); in [14] it was 5 µg/mL (≈ 5.9 µM). The metabolised at 96 h in [5] amounted to 8%. Also, the metabolised at 24 h in data set [8] was found to be 4%. In addition, the CAC in data set [13] came out at 40 µM.

As to `CCCCCCCCCC(=O)N[C@@H](Cc1c[nH]c2ccccc12)C(=O)N[C@H](CC(N)=O)C(=O)N[C@@H](CC(=O)O)C(=O)N[C@@H]1C(=O)NCC(=O)N[C@@H](CCCN)C(=O)N[C@@H](CC(=O)O)C(=O)N[C@H](C)C(=O)N[C@@H](CC(=O)O)C(=O)NCC(=O)N[C@H](CO)C(=O)N[C@@H]([C@H](C)CC(=O)O)C(=O)N[C@@H](CC(=O)c2ccccc2N)C(=O)O[C@@H]1C`, the MIC was 1 µg/mL (≈ 0.617 µM) in data set [1]; 2 µg/mL (≈ 1.23 µM) in [2]; 2 µg/mL (≈ 1.23 µM) in data set [4]; 2 µg/mL (≈ 1.23 µM) in [7]; 1.5 µg/mL (≈ 0.926 µM) in data set [9]; 3.5 µg/mL (≈ 2.16 µM) in [14].

Turning to `CCCCCCCCCC(=O)N[C@H](CNC(=O)N[C@@H](CCN)CNC(=O)N[C@@H](CCN)CN[C@H](CNC(=O)N[C@H](CNC(N)=O)CC(C)C)CC(C)C)Cc1ccccc1`, the MIC in data set [1] stood at 10 µg/mL (≈ 11.8 µM); in data set [2], 10 µg/mL (≈ 11.8 µM); in data set [3] it was 30 µg/mL (≈ 35.4 µM); in data set [4], 10 µg/mL (≈ 11.8 µM); in data set [6], 30 µg/mL (≈ 35.4 µM); in data set [7], 10 µg/mL (≈ 11.8 µM). Moreover, the MIC in data set [9] came out at 10 µg/mL (≈ 11.8 µM); in data set [10], 30 µg/mL (≈ 35.4 µM); in data set [11] it was 30 µg/mL (≈ 35.4 µM); in [12] it was 30 µg/mL (≈ 35.4 µM); in data set [14] it was 20 µg/mL (≈ 23.6 µM). Moreover, the metabolised at 96 h in data set [5] was 8%. Besides, the CAC in [13] was 56 µM.

On to `CCCCCCCCCC(=O)N[C@H](CNC(=O)N[C@@H](CCN)CNC(=O)N[C@@H](CCN)CN[C@H](CNC(=O)N[C@@H](CCN)CNC(N)=O)CC(C)C)Cc1ccccc1`, for which the MIC in data set [1] is 20 µg/mL (≈ 24 µM); in [2], 20 µg/mL (≈ 24 µM); in [4], 30 µg/mL (≈ 36 µM); in [7], 30 µg/mL (≈ 36 µM); in data set [9], 20 µg/mL (≈ 24 µM); in [14], 40 µg/mL (≈ 48 µM). In addition, the metabolised at 96 h in [5] was determined as 8%. Besides, the CAC in data set [13] is 87 µM.

On to `CCCCCCCCCC(=O)N[C@H](CNC(=O)N[C@@H](CCCCN)CNC(=O)N[C@@H](CCCCN)CN[C@H](CNC(=O)N[C@@H](CCCCN)CNC(N)=O)CC(C)C)Cc1ccccc1`, for which the MIC in data set [1] was 30 µg/mL (≈ 32.7 µM); in data set [2], 30 µg/mL (≈ 32.7 µM); in [4], 30 µg/mL (≈ 32.7 µM); in data set [7], 40 µg/mL (≈ 43.6 µM); in [9], 30 µg/mL (≈ 32.7 µM). In addition, in data set [5], the metabolised at 96 h stood at 15%. In addition, the CAC in data set [13] stood at 79 µM.

On to `NC(=O)[C@H](Cc1ccccc1)NC(=O)[C@H](Cc1ccccc1)NC(=O)[C@@H]1CCCN1C(=O)[C@@H](N)Cc1ccc(O)cc1` [ENDOMORPHIN 2], for which the Stability result in [15] is “Unstable”.
